Experimental data reported in ChEMBL document CHEMBL5058564, “EUbOPEN Chemogenomics Library 2 (Incucyte)” (2022).

What was measured:
Assay type in all cases: toxicity, cell-based
HEK-293T = assay: Incucyte cell viability with HEK293T; details: human, 10 µM, compound concentration 10 uM
Fibroblast = assay: Incucyte cell viability with human fibroblast; details: 10 µM, compound concentration 10 uM
U2OS = assay: Incucyte cell viability with U2OS; details: human, 10 µM, compound concentration 10 uM
[1] = 0 h, replicate number 1, timepoint 0 hours
[2] = 0 h, replicate number 2, timepoint 0 hours
[3] = 6 h, replicate number 1, timepoint 6 hours
[4] = 12 h, replicate number 1, timepoint 12 hours
[5] = 12 h, replicate number 2, timepoint 12 hours
[6] = 18 h, replicate number 1, timepoint 18 hours
[7] = 18 h, replicate number 2, timepoint 18 hours
[8] = 24 h, replicate number 1, timepoint 24 hours
[9] = 24 h, replicate number 2, timepoint 24 hours
[10] = 6 h, replicate number 2, timepoint 6 hours
Also: unitless GR value; below 1 slowed growth and below 0 cell loss.

Structure (SMILES) | Growth Rate (HEK-293T; [1]) | Growth Rate (HEK-293T; [4]) | Growth Rate (HEK-293T; [5]) | Growth Rate (HEK-293T; [6]) | Growth Rate (HEK-293T; [7]) | Growth Rate (HEK-293T; [8]) | Growth Rate (HEK-293T; [9]) | Growth Rate (Fibroblast; [1]) | Growth Rate (Fibroblast; [2]) | Growth Rate (U2OS; [1]) | Growth Rate (U2OS; [2]) | Growth Rate (U2OS; [3]) | Growth Rate (U2OS; [4]) | Growth Rate (U2OS; [5]) | Growth Rate (U2OS; [6]) | Growth Rate (U2OS; [7]) | Growth Rate (U2OS; [8]) | Growth Rate (U2OS; [9]) | Growth Rate (Fibroblast; [3]) | Growth Rate (Fibroblast; [8]) | other results
CCC(=O)OCC(=O)[C@@]1(OC(=O)CC)[C@@H](C)C[C@H]2[C@@H]3CCC4=CC(=O)C=C[C@]4(C)[C@@]3(Cl)[C@@H](O)C[C@@]21C [BECLOMETHASONE DIPROPIONATE] | 0.14 | 0.61 | 0.8 | 0.62 | 0.78 | 0.65 | 0.83 | -0.17 | -0.56 | -0.25 | 0.62 | 0.73 | 0.81 | 0.85 | 0.8 | 0.81 | 0.78 | 0.9 |  |  | Growth Rate (HEK-293T; [2]): -0.33; Growth Rate (HEK-293T; [3]): 0.91
COCCN1CCC(c2cc(CN(C)C(=O)c3cccc(Oc4ccccc4)c3)ccn2)CC1 |  | 0.83 | 0.93 | 0.81 | 0.92 | 1 | 0.89 | 0.94 |  | -0.65 | -0.76 | 0.63 | 0.74 | 0.87 | 0.67 | 0.97 | 0.93 |  | 0.77 |  | Growth Rate (HEK-293T; [2]): 0.76; Growth Rate (HEK-293T; [3]): 0.44; Growth Rate (U2OS; [10]): 0.6
C[C@@H](OC[C@@]1(c2ccccc2)CC[C@]2(CCC(=O)N2)CN1)c1cc(C(F)(F)F)cc(C(F)(F)F)c1 [ROLAPITANT] |  | 0.83 | 0.57 | 0.88 | 0.81 | 0.89 | 1 |  | 0.28 |  |  | -0.32 |  | 0.49 | 0.79 | 0.63 | 0.84 | 0.64 | -0.04 | 0.27 | Growth Rate (HEK-293T; [10]): 0.73; Growth Rate (Fibroblast; [4]): 0.02; Growth Rate (Fibroblast; [5]): 0.68; Growth Rate (Fibroblast; [6]): 0.57; Growth Rate (U2OS; [10]): 0.54
CN[C@@H]1Cc2cccc3[nH]c(=O)n(c23)C1.O=C(O)/C=C\C(=O)O |  |  |  | 0.9 | 0.98 | 0.79 |  |  |  | 0.11 | -1 |  |  |  | 0.71 | 0.85 | 0.89 | 0.98 | -0.17 | 0.5 | Growth Rate (HEK-293T; [3]): 0.74; Growth Rate (HEK-293T; [10]): 0.88; Growth Rate (Fibroblast; [10]): 0.8; Growth Rate (Fibroblast; [4]): 0.68; Growth Rate (Fibroblast; [6]): 0.81
Cc1cnc(CNCC2(F)CCN(C(=O)c3ccc(F)c(Cl)c3)CC2)nc1 | 0.4 |  |  | 1 |  | 0.91 |  | 0.31 | 0.71 | -0.59 | 0.21 | 0.35 | 0.56 | 0.96 | 0.81 | 0.78 | 0.79 | 0.94 | 0.38 | 0.5 | Growth Rate (HEK-293T; [2]): 0.21; Growth Rate (Fibroblast; [4]): 0.81; Growth Rate (Fibroblast; [5]): 0.62; Growth Rate (Fibroblast; [6]): 0.86; Growth Rate (U2OS; [10]): 0.86
CN1[C@@H]2CC[C@H]1C[C@@H](OC(=O)C(CO)c1ccccc1)C2 (stereo not given in full) [ATROPINE] |  | 0.68 | 0.53 | 0.6 | 0.65 | 0.44 | 0.6 | -0.04 | -0.32 |  |  | 0.86 | 0.79 | 0.96 |  | 0.95 |  |  |  |  | Growth Rate (HEK-293T; [3]): 0.9; Growth Rate (HEK-293T; [10]): 0.19; Growth Rate (Fibroblast; [7]): 0.91
Cc1noc(C)c1-c1cnc2c(-c3ccc(C(=O)O)cc3)cn([C@@H](C)c3ccccn3)c2c1 [PLX-51107] |  |  |  | 0.88 |  | 0.6 |  |  | 0.17 | -0.01 | -0.06 | 0.72 | 0.5 |  | 0.73 | 0.96 | 0.96 |  | 0.13 |  | Growth Rate (Fibroblast; [10]): 0.81; Growth Rate (Fibroblast; [5]): 0.99; Growth Rate (U2OS; [10]): 0.86
COCCn1c(C)c(C)s/c1=N\C(=O)C1C(C)(C)C1(C)C | 0.71 |  | 0.76 |  |  |  |  | 0.65 | 0.2 | 0.47 | -1 |  |  |  | 1 | 0.93 | 0.98 | 0.97 |  |  | Growth Rate (HEK-293T; [10]): 0.77
N#Cc1cc2c(OCC(O)CN3CCN(C(c4ccccc4)c4ccccc4)CC3)cccc2[nH]1 (racemic) | 0.77 | 0.54 | 0.62 | 0.32 | 0.26 | 0.27 | 0.29 | -0.11 | 0.94 | -0.56 | -1 |  |  |  |  |  |  |  |  | 0.24 | Growth Rate (Fibroblast; [4]): 0.52; Growth Rate (Fibroblast; [6]): -0.05; Growth Rate (Fibroblast; [7]): 0.91
CSCC[C@H](NC(=O)[C@@H]1CCCN1C(=O)CNC(=O)[C@H](CCCCN)NC(=O)[C@H](Cc1cnc[nH]1)NC(=O)[C@H](CO)NC(=O)[C@H](CC(C)C)NC(=O)[C@H](CCCNC(=N)N)NC(=O)[C@@H]1CCCN1C(=O)[C@H](CCCNC(=N)N)NC(=O)[C@@H](N)CCC(N)=O)C(=O)N1CCC[C@H]1C(=O)N[C@@H](Cc1ccccc1)C(=O)O | 0.46 |  |  | 0.97 |  | 0.74 |  | 0.13 | 0.64 |  | -0.88 |  |  |  |  | 0.91 |  | 0.94 |  | 0.88 | Growth Rate (HEK-293T; [2]): 0.65; Growth Rate (Fibroblast; [5]): 0.8; Growth Rate (U2OS; [10]): 0.73
COc1cccc2c1c(NS(=O)(=O)c1ccc(Cl)s1)nn2Cc1cccc(CNC(=O)C(C)(C)O)c1 | 0.52 | 0.98 | 0.47 |  |  | 0.38 |  |  | 0.35 | -0.39 | -1 |  | 0.99 | 0.98 |  | 0.83 |  | 0.89 | 0.17 | 0.53 | Growth Rate (HEK-293T; [10]): 0.95; Growth Rate (Fibroblast; [10]): 0.5; Growth Rate (Fibroblast; [4]): 0.41; Growth Rate (Fibroblast; [6]): 0.35
